In publication PMC8369502, “High-Throughput Drug Screening System Based on Human Induced Pluripotent Stem Cell-Derived Atrial Myocytes ∼ A Novel Platform to Detect Cardiac Toxicity for Atrial Arrhythmias” (Frontiers in Pharmacology, 2021):
Where “and” joins values, the source holds several entries; their conditions need not be identical. Equal values may be shown once. Entries after “also recorded” stand apart in the source; their conditions may differ. Read-outs that look alike come from different tables or passages of the source.

Experiments:
[1] = system: cardiac Na+ channel (Nav1.5); conditions: cited from earlier work
[2] = system: CT (control hiPS-CMs without RA, ventricular-like); test: High-throughput membrane potential recording (FluoVolt, FDSS/μCell) in CT; assay type: cell-based, human; conditions: for Falling Slope / PWD30cF / PWD80cF / Rising Slope: % change from value before compound addition, 10 min after addition (Bay K 8644: 3 min)
Experimental: (§1) Using a high-throughput screening system (FDSS/μCell), we assessed the drug toxicity of several experimental drugs on hiPS-derived atrial myocytes as well as control hiPS-derived cardiomyocytes. Membrane potential was used as one of the parameters during the assessment.
(§2) After purification, hiPS-derived cardiomyocytes were plated in 96-well plates for downstream drug response assessment using FluoVolt™ Membrane Potential Kit. […] The comparison of variance in the response of drug administration in CT and AM was represented by the percentage of changes based on their baseline values respectively.
(§3) FluoVolt™ Membrane Potential Kit (ThermoFisher […], F10488, Massachusetts, United States) was used to measure membrane potentials. The basic procedure was performed in accordance with the manufacturer’s instructions. […] MP were recorded at excitation and emission stages at wavelengths of 470 and 540 nm, respectively. […] Stock solutions of the test compounds were prepared in 100% DMSO, and serially diluted 1/40 into compound plates for testing (0.5% DMSO was the maximum concentration in all wells). The compounds were automatically pipetted from the compound plate, and 12 μL was loaded in the wells already containing the cells with 48 μL of media. Recording data were analyzed using Waveform Analysis of Cardiomyocyte Software (Ver.1.2.1J, Hamamatsu Photonics K.K.). Data values for a well were averaged from waveforms that arose during 30 s. The beat rate (BR; beats per minute), waveform amplitude (AMP), and duration at 30, 50, and 80% of decay (PWD30, PWD 50, and PWD 80, respectively) were used as evaluation parameters. PWDs were corrected using the Fridericia formula. PWD30-80 was calculated as the difference between PWD80 and PWD30. Each parameter was calculated as percentage change (%) from the value before test compound addition.

[3] = system: AM (RA-treated hiPS-CMs, atrial-like); test: High-throughput membrane potential recording (FluoVolt, FDSS/μCell) in AM; assay type: cell-based, human; conditions: for cessation of beating (cases): count of cases; for rising slope of membrane potential (in words): concentration range as stated in the source
Experimental: as §1, §2, §3

[4] = system: ventricular myocytes of guinea pigs; set-up: method as in Delaunois et al., 2015; conditions: 75 μM; ref Delaunois et al., 2015; cited from earlier work
Cav1.2 current = system: Cav1.2 current; set-up: method as in Kramer et al., (2013), Harmer et al., (2011); conditions: ref Kramer et al., (2013), Harmer et al., (2011); cited from earlier work
human atrial myocytes = system: human atrial myocytes; set-up: method as in Lagrutta et al., 2006; conditions: ref Lagrutta et al., 2006; cited from earlier work
atrial refractory period = system: atrial refractory period; set-up: method as in Knobloch et al., 2002; conditions: ref Knobloch et al., 2002; cited from earlier work
[5] = system: ventricular function and porcine ventricular myocytes; set-up: method as in Knobloch et al., 2002; conditions: ref Knobloch et al., 2002; cited from earlier work
[6] = concentration range as stated in the source
[7] = % change from value before compound addition, 10 min after addition (Bay K 8644: 3 min)

concentration at which cessation of beating was elicited [2] | SMILES | amplitude of membrane potential (in words) [2] | membrane potential duration (in words) [2] | incidence of arrhythmia-like waveforms: arrest ([2]; 30 μM) [%] | incidence of arrhythmia-like waveforms: arrest ([2]; 100 μM) [%] | Falling Slope [2] | PWD30cF [2] | PWD80cF [2] | Rising Slope [2] | falling slope of membrane potential (in words) [2, 6] | rising slope of membrane potential (in words) [2, 6] | incidence of arrhythmia-like waveforms: arrest ([3]; 30 μM) [%] | incidence of arrhythmia-like waveforms: arrest ([3]; 100 μM) [%] | Rising Slope [3, 7] | rising slope of membrane potential (in words) [3] | incidence of arrhythmia-like waveforms: arrest ([3]; 10 μM) [%] | PWD30cF (in words) [3] | PWD50cF (in words) [3] | PWD30cF [3, 7] | further results
above 30 μM | NC(=O)N1c2ccccc2C=Cc2ccccc21 [Carbamazepine] | decrease | shortened | 8 | 92 | ↑ | ↓ | ↓ | ↓ | increase | decrease | 50 | 83 | ↓ | decrease |  |  |  |  | IC50 ([1]; ref Harmer et al., 2011, read-out: IC50 cardiac Na+ channel (Nav1.5)): 152 µM; concentration at which irregular beating or EAD appeared [2]: above 30 μM; incidence of arrhythmia-like waveforms: irregular beat ([2]; 30 μM): 25%; incidence of arrhythmia-like waveforms: irregular beat ([2]; 100 μM): 8%; cessation of beating (cases) ([2]; 100 μM, count of cases): 11 of 12; beating rate (in words) [2, 6]: decrease; other parameters of membrane potential (in words) [3]: no obvious change was observed; cessation of beating (cases) ([3]; 30 μM): half the cases; cessation of beating (cases) ([3]; 100 μM): 5 of 6; APD50 [4]: shortening; APD90 [4]: shortening; Vmax [4]: decrease
higher than 30 μM | O=C1NC(=O)C(c2ccccc2)(c2ccccc2)N1 [Phenytoin] |  | slight shortening | 83 | 100 | ↑ |  |  | ↓ | increase | dose-dependent decrease | 67 | 100 | ↓ | dose-dependent decrease | 50 |  |  |  | IC50 ([1]; ref Kramer et al., (2013), Harmer et al., (2011), read-out: IC50 cardiac Nav1.5 current): 72.4 µM and 121 µM; IC50 (Cav1.2 current): 21.9 µM
 | CC(C)[C@@H]1CC[C@@H](C)C[C@@H]1P(=O)(c1ccccc1)c1ccccc1 [DPO-1] |  |  |  |  |  |  |  |  |  |  |  |  |  |  |  | dose-dependent increases; also recorded: prolongation | dose-dependent increases; also recorded: prolongation | ↑ | action potentials in human atrial myocytes (human atrial myocytes): prolongation of action potentials
 | O=C(NCc1ccccc1-c1ccccc1C(=O)NCCc1ccccn1)OCc1ccccc1 [S9947] | decrease |  |  |  | ↑ | ↓ | ↓ | ↓ |  |  |  |  |  |  | 100 | prolongation | prolongation | ↑ | incidence of arrhythmia-like waveforms: arrest ([2]; 10 μM): 50%; cessation of beating / arrest (cases) ([2]; 10 μM, count of cases): half; membrane potential duration (in words) [3]: dose-dependent increase; cessation of beating / arrest (cases) ([3]; 10 μM, count of wells): All; PWD80cF [3, 7]: ↑; atrial refractory period (atrial refractory period): prolonged; ventricular function and porcine ventricular myocytes [5]: did not affect
